Our source for the relative viability values is the supplement of paper PMC10307832.

Holding throughout (assay): relative viability (nuclei count vs DMSO), 5 days (fraction); higher = more cells survive
Compound in assay [1]: CCc1cnn2c(NCc3ccc[n+]([O-])c3)cc(N3CCCC[C@H]3CCO)nc12 [Dinaciclib] + C[C@@H](Oc1cc(-c2cnn(C3CCNCC3)c2)cnc1N)c1c(Cl)ccc(F)c1Cl [Crizotinib] (partner 1 µM)
The method in brief: (§1)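 Medians of duplicate plates are given as relative viability. That measure is the nuclei count in treated wells divided by the count in vehicle wells. Counts were taken on 4× images of lung cancer cell lines in 1536-well plates, 5 days after pin-tool dosing the day after seeding with one drug alone or a fixed anchor-drug dose plus five library-drug doses (not always all listed) in √10 steps.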

Compound in assay [2]: CCc1cnn2c(NCc3ccc[n+]([O-])c3)cc(N3CCCC[C@H]3CCO)nc12 [Dinaciclib] + CCNC(=O)c1noc(-c2cc(C(C)C)c(O)cc2O)c1-c1ccc(CN2CCOCC2)cc1 [Luminespib] (partner 0.01 µM)
Put shortly: as §1

Compound in assay [3]: CCc1cnn2c(NCc3ccc[n+]([O-])c3)cc(N3CCCC[C@H]3CCO)nc12 [Dinaciclib] + C[C@]1(O)C[C@@H](c2nc(-c3ccc4ccc(-c5ccccc5)nc4c3)c3c(N)nccn32)C1 [Linsitinib] (partner 1 µM)
The method in brief: as §1

Compound in assay [4]: CCc1cnn2c(NCc3ccc[n+]([O-])c3)cc(N3CCCC[C@H]3CCO)nc12 [Dinaciclib] + CS(=O)(=O)N1CCN(Cc2cc3nc(-c4cccc5[nH]ncc45)nc(N4CCOCC4)c3s2)CC1 [Pictilisib] (partner 1 µM)
The method in brief:
as §1

Compound in assay [5]: CCc1cnn2c(NCc3ccc[n+]([O-])c3)cc(N3CCCC[C@H]3CCO)nc12 [Dinaciclib] + N=C(N)NC(=N)NCCc1ccccc1 [Phenformin] (partner 250 µM)
The method in brief: as §1

Regarding NCI-H1437, the relative viability in assay [1] (first compound 0.009487 µM) was 0.918; in assay [1] (first compound 0.03 µM) it was 0.41; in assay [1] (first compound 0.09487 µM), 0.0916; in assay [1] (first compound 0.3 µM), 0.0807; in assay [2] (first compound 0.009487 µM) it was 1.1; in assay [2] (first compound 0.03 µM), 0.354. Moreover, the relative viability was found to be 0.152 in assay [2] (first compound 0.09487 µM); 0.136 in assay [2] (first compound 0.3 µM); 0.839 in assay [3] (first compound 0.009487 µM); 0.112 in assay [3] (first compound 0.03 µM); 0.0939 in assay [3] (first compound 0.09487 µM); 0.0919 in assay [3] (first compound 0.3 µM). In addition, the relative viability in assay [4] (first compound 0.009487 µM) was determined as 0.378; in assay [4] (first compound 0.03 µM), 0.0843; in assay [4] (first compound 0.09487 µM), 0.0843; in assay [4] (first compound 0.3 µM), 0.0936; in assay [5] (first compound 0.009487 µM) it was 0.279; in assay [5] (first compound 0.03 µM), 0.187. The relative viability worked out at 0.17 in assay [5] (first compound 0.09487 µM) and 0.13 in assay [5] (first compound 0.3 µM).
Take RERF-LC-KJ: the relative viability in assay [1] (first compound 0.009487 µM) amounted to 0.885; in assay [1] (first compound 0.03 µM), 0.179; in assay [1] (first compound 0.09487 µM) it was 0.131; in assay [1] (first compound 0.3 µM), 0.122; in assay [2] (first compound 0.009487 µM) it was 0.452; in assay [2] (first compound 0.03 µM), 0.195. Also, the relative viability is 0.179 in assay [2] (first compound 0.09487 µM); 0.208 in assay [2] (first compound 0.3 µM); 0.924 in assay [3] (first compound 0.009487 µM); 0.193 in assay [3] (first compound 0.03 µM); 0.147 in assay [3] (first compound 0.09487 µM); 0.099 in assay [3] (first compound 0.3 µM). The relative viability was 0.448 in assay [4] (first compound 0.009487 µM); 0.19 in assay [4] (first compound 0.03 µM); 0.124 in assay [4] (first compound 0.09487 µM); 0.117 in assay [4] (first compound 0.3 µM); 0.35 in assay [5] (first compound 0.009487 µM); 0.223 in assay [5] (first compound 0.03 µM). In addition, the relative viability in assay [5] (first compound 0.09487 µM) was 0.224; in assay [5] (first compound 0.3 µM), 0.185.
On to NCI-H1792, for which the relative viability in assay [1] (first compound 0.009487 µM) amounted to 0.994; in assay [1] (first compound 0.03 µM), 0.747; in assay [1] (first compound 0.09487 µM), 0.184; in assay [1] (first compound 0.3 µM) it was 0.0753; in assay [2] (first compound 0.009487 µM), 0.422; in assay [2] (first compound 0.03 µM), 0.225. Moreover, the relative viability in assay [2] (first compound 0.09487 µM) was 0.117; in assay [2] (first compound 0.3 µM) it was 0.0889; in assay [3] (first compound 0.009487 µM) it was 0.559; in assay [3] (first compound 0.03 µM), 0.317; in assay [3] (first compound 0.09487 µM), 0.069; in assay [3] (first compound 0.3 µM) it was 0.0552. The relative viability in assay [4] (first compound 0.009487 µM) was found to be 0.234; in assay [4] (first compound 0.03 µM), 0.121; in assay [4] (first compound 0.09487 µM), 0.0539; in assay [4] (first compound 0.3 µM) it was 0.0574; in assay [5] (first compound 0.009487 µM), 0.237; in assay [5] (first compound 0.03 µM), 0.184. Further, the values for the relative viability in assay [5] (first compound 0.09487 µM) and in assay [5] (first compound 0.3 µM) were 0.0541 and 0.075, respectively.
With HCC-44, the relative viability worked out at 0.741 in assay [1] (first compound 0.009487 µM); 0.133 in assay [1] (first compound 0.03 µM); 0.118 in assay [1] (first compound 0.09487 µM); 0.112 in assay [1] (first compound 0.3 µM); 0.61 in assay [2] (first compound 0.009487 µM); 0.2 in assay [2] (first compound 0.03 µM). The relative viability in assay [2] (first compound 0.09487 µM) is 0.179; in assay [2] (first compound 0.3 µM), 0.17; in assay [3] (first compound 0.009487 µM), 0.461; in assay [3] (first compound 0.03 µM) it was 0.119; in assay [3] (first compound 0.09487 µM), 0.122; in assay [3] (first compound 0.3 µM) it was 0.103. Also, the relative viability in assay [4] (first compound 0.009487 µM) stood at 0.711; in assay [4] (first compound 0.03 µM), 0.248; in assay [4] (first compound 0.09487 µM), 0.122; in assay [4] (first compound 0.3 µM), 0.129; in assay [5] (first compound 0.009487 µM), 0.138; in assay [5] (first compound 0.03 µM) it was 0.105. The relative viability in assay [5] (first compound 0.09487 µM) came out at 0.0633; in assay [5] (first compound 0.3 µM) it was 0.0778.
